{
  "source": "patent US20030073705A1",
  "about": "“Method of treatment” (priority 2001, published 2003)",
  "key": {"[1]": {"test_system": "patients with Type 2 diabetes and nephropathy", "assay": "Trough sitting blood pressure during the study", "format": "in vivo, human", "description": "The results reported here represent a mean follow-up time of 3.4 years.\n(§1) The study involved male and female patients ranging in age from 31 to 70 years diagnosed with Type 2 diabetes and nephropathy; the latter defined as two urine albumin:creatinine ratios from a first morning specimen >300 mg/g (34 mg/mmol) (or a 24-hr urine protein >=500 mg (0.5 g/day)) and two serum creatinine values between 1.3 and 3.0 mg/dL (115 and 265 μmol/L) (lower limit of 1.5 mg/dL (133 μmol/L)for males >60 kg). […] Journal of the Renin Angiotensin Aldosterone System 2000;1(4):328-35. Patients were excluded from the study if diagnosed with Type 1 diabetes or nondiabetic renal disease, including renal artery stenosis. Patients with a history of heart failure, myocardial infarction or coronary artery bypass grafting within 1 month, cerebral vascular accident or percutaneous transluminal coronary angioplasty within 6 months or transient ischemic attacks within 1 year prior to enrollment were excluded.\n(§2) During the 6-week screening phase, hypertensive patients continued to take their standard antihypertensive therapy. However, in those patients taking angiotensin I converting enzyme inhibitors or angiotensin II receptor antagonists, these agents were discontinued at the beginning of the screening phase and replaced by alternative open-label therapy at the investigator's discretion (diuretic, calcium-channel antagonist, α- or β-blocker, and/or centrally acting agent). […] After an additional 8 weeks, further antihypertensive therapy with agents described above (exclusive of angiotensin I converting enzyme inhibitors or angiotensin II receptor antagonists), were added or increased in dosage to achieve the goal trough sitting blood pressure.\nThroughout the study, patients received standard medical care for treatment of diabetes, including routine measurements of HbAlc and fasting serum glucose concentrations. Study visits were scheduled every 3 months or more frequently if necessary for monitoring trough sitting blood pressure control, changes in laboratory measurements, adverse experiences and endpoints. Patients who discontinued early from blinded study therapy were followed every 3 months until study end for primary and secondary endpoints, blood pressure control and laboratory measurements. Those who could not return for clinic visits were contacted by telephone for endpoints of dialysis, renal transplantation or death. […]"}, "[2]": {"test_system": "patients with Type 2 diabetes and nephropathy", "assay": "Discontinuation from study therapy and adverse experiences", "details": "n = 751", "description": "as §1, §2\n(§3) Throughout the study, patients received standard medical care for treatment of diabetes, including routine measurements of HbAlc and fasting serum glucose concentrations. Study visits were scheduled every 3 months or more frequently if necessary for monitoring trough sitting blood pressure control, changes in laboratory measurements, adverse experiences and endpoints. Patients who discontinued early from blinded study therapy were followed every 3 months until study end for primary and secondary endpoints, blood pressure control and laboratory measurements. Those who could not return for clinic visits were contacted by telephone for endpoints of dialysis, renal transplantation or death."}, "[3]": {"test_system": "patients with Type 2 diabetes and nephropathy", "assay": "Triple-blind, randomized, placebo-controlled study: primary composite endpoint (doubling of serum creatinine, end stage renal disease or death) and components", "format": "in vivo, human", "description": "as §1, §2, §3\n(§4) The primary efficacy parameter was a composite endpoint of time to the first event of doubling of serum creatinine concentration, end stage renal disease, or death. End stage renal disease was defined as the need for chronic dialysis or renal transplantation. The prespecified secondary endpoint, cardiovascular morbidity and mortality, was a composite of myocardial infarction, stroke, hospitalization for heart failure or unstable angina, coronary or peripheral revascularization, and death from cardiovascular-related causes. Analyses of the components of both the primary and secondary composite endpoints also were prespecified. Other secondary endpoints included progression of renal disease as assessed by the slope of the reciprocal of serum creatinine concentration and changes in proteinuria. (See Mitch W E, Walser M, Buffington G A, Lemann J Jr. A simple method of estimating progression of chronic renal failure. Lancet 1976;2:1326-8.) An independent, blinded endpoint committee adjudicated all potential clinical endpoints occurring from the time of randomization until study termination.\n(§5) A supportive, per-protocol analysis excluded patients who violated the inclusion/exclusion criteria, and censored patients 14 days after permanent discontinuation of study medication."}, "[4]": {"test_system": "patients with Type 2 diabetes and nephropathy", "assay": "Secondary endpoints: proteinuria and progression of renal disease (slope of reciprocal of serum creatinine)", "format": "in vivo, human", "details": "on-treatment; p=0.01 versus placebo", "description": "as §1\nDuring the 6-week screening phase, hypertensive patients continued to take their standard antihypertensive therapy. […]\nThe primary efficacy parameter was a composite endpoint of time to the first event of doubling of serum creatinine concentration, end stage renal disease, or death. […] Other secondary endpoints included progression of renal disease as assessed by the slope of the reciprocal of serum creatinine concentration and changes in proteinuria. […]"}, "[5]": {"test_system": "patients with Type 2 diabetes and nephropathy", "assay": "Secondary endpoint: cardiovascular morbidity and mortality and components", "format": "in vivo, human", "description": "as §1, §2, §4, §5"}, "[6]": {"details": "intention-to-treat, n = 751, mean follow-up 3.4 years"}, "[7]": {"details": "losartan relative to placebo, p=0.010"}},
  "data": [
    {"substance": "2-N-butyl-4-chloro-5-hydroxymethyl-1-[(2′-(1H-tetrazol-5-yl)biphenyl-4-yl)-methyl]imidazole, potassium salt [Losartan]", "values": [
      {"measurement": "Trough diastolic blood pressure", "setting": "[1]; at 1 year, average", "result": 78, "unit": "mmHg"},
      {"measurement": "Trough systolic blood pressure", "setting": "[1]; at 1 year, average", "result": 146, "unit": "mmHg"},
      {"measurement": "Mean arterial pressure", "setting": "[1]; at 1 year, p<0.001 versus placebo", "result": 100.9, "unit": "mmHg"},
      {"measurement": "Pulse pressure", "setting": "[1]; at 1 year, p=0.047 versus placebo", "result": 67.8, "unit": "mmHg"},
      {"measurement": "Trough diastolic blood pressure", "setting": "[1]; at study end, average", "result": 74, "unit": "mmHg"},
      {"measurement": "Trough systolic blood pressure", "setting": "[1]; at study end, average", "result": 140, "unit": "mmHg"},
      {"measurement": "Mean arterial pressure", "setting": "[1]; at study end, p=0.59 versus placebo", "result": 95.9, "unit": "mmHg"},
      {"measurement": "Pulse pressure", "setting": "[1]; at study end, p=0.77 versus placebo", "result": 66.7, "unit": "mmHg"},
      {"measurement": "Trough diastolic blood pressure", "setting": "[1]; at year 2, average", "result": 77, "unit": "mmHg"},
      {"measurement": "Trough systolic blood pressure", "setting": "[1]; at year 2, average", "result": 143, "unit": "mmHg"},
      {"measurement": "Pulse pressure", "setting": "[1]; at year 2, p=0.37 versus placebo", "result": 66.2, "unit": "mmHg"},
      {"measurement": "Mean arterial pressure", "setting": "[1]; at year 2, p=0.38 versus placebo", "result": 99.1, "unit": "mmHg"},
      {"measurement": "Discontinued for Any Reason", "setting": "[2]; discontinuation from study therapy", "result": "341 (45.4) n (%)"},
      {"measurement": "Clinical adverse experience causing discontinuation: End Stage Renal Disease", "setting": "[2]", "result": "16 (2.1) n (%)"},
      {"measurement": "Clinical adverse experience causing discontinuation: Heart Failure", "setting": "[2]", "result": "23 (3.0) n (%)"},
      {"measurement": "Clinical adverse experience causing discontinuation: Myocardial Infarction", "setting": "[2]", "result": "7 (0.9) n (%)"},
      {"measurement": "Clinical adverse experience causing discontinuation: Stroke", "setting": "[2]", "result": "9 (1.2) n (%)"},
      {"measurement": "Clinical adverse experience causing discontinuation: Worsening renal insufficiency", "setting": "[2]", "result": "8 (1.1) n (%)"},
      {"measurement": "Discontinuation from study therapy: Clinical Adverse Experience", "setting": "[2]", "result": "128 (17.0) n (%)"},
      {"measurement": "Discontinuation from study therapy: Deaths", "setting": "[2]", "result": "65 (8.7) n (%)"},
      {"measurement": "Discontinuation from study therapy: Laboratory Adverse Experience", "setting": "[2]", "result": "21 (2.8) n (%)"},
      {"measurement": "Laboratory adverse experience causing discontinuation: Hyperkalemia", "setting": "[2]", "result": "9 (1.2) n (%)"},
      {"measurement": "Patients reaching primary composite endpoint (number)", "setting": "[3]; intention-to-treat analysis", "result": 327, "unit": "patients"},
      {"measurement": "Patients reaching primary composite endpoint (percent)", "setting": "[3]; intention-to-treat analysis", "result": 43.5, "unit": "%"},
      {"measurement": "Primary composite endpoint, event rate", "setting": "[3]; intention-to-treat analysis", "result": "15.9 /100 patient years of follow-up"},
      {"measurement": "Doubling of sCr, ESRD or Death (composite primary endpoint), patients", "setting": "[3]; intention-to-treat, losartan 50 to 100 mg once daily +CT, n = 751, mean follow-up 3.4 years", "result": "327 (43.5) n (%)"},
      {"measurement": "Death, patients", "setting": "[3]; [6]", "result": "158 (21.0) n (%)"},
      {"measurement": "Doubling of sCr or ESRD, patients", "setting": "[3]; [6]", "result": "226 (30.1) n (%)"},
      {"measurement": "Doubling of sCr, patients", "setting": "[3]; [6]", "result": "162 (21.6) n (%)"},
      {"measurement": "ESRD or Death, patients", "setting": "[3]; [6]", "result": "255 (34.0) n (%)"},
      {"measurement": "ESRD, patients", "setting": "[3]; [6]", "result": "147 (19.6) n (%)"},
      {"measurement": "Risk Reduction, Doubling of sCr, ESRD or Death (composite primary endpoint)", "setting": "[3]; losartan relative to placebo, intention-to-treat, Cox model, p=0.024", "result": 16, "unit": "%"},
      {"measurement": "Risk Reduction, ESRD", "setting": "[3]; losartan relative to placebo, p=0.002", "result": 28, "unit": "%"},
      {"measurement": "Risk Reduction, Doubling of sCr", "setting": "[3]; losartan relative to placebo, p=0.006", "result": 25, "unit": "%"},
      {"measurement": "Risk Reduction, Doubling of sCr or ESRD", "setting": "[3]; [7]", "result": 21, "unit": "%"},
      {"measurement": "Risk Reduction, ESRD or Death", "setting": "[3]; [7]", "result": 20, "unit": "%"},
      {"measurement": "Risk Reduction, Death", "setting": "[3]; losartan relative to placebo, p=0.882", "result": "−2", "unit": "%"},
      {"measurement": "Decrease in risk of primary composite endpoint after correcting for blood pressure", "setting": "[3]; mean arterial pressure as time-varying covariate, p=0.034", "result": 15, "unit": "%"},
      {"measurement": "Risk reduction in primary composite endpoint, per protocol analysis", "setting": "[3]; patients who remained on treatment throughout the protocol, p=0.008", "result": 22, "unit": "%"},
      {"measurement": "Effect in pre-defined subgroups (primary composite, ESRD, ESRD or death)", "setting": "[3]; patients with baseline serum creatinine greater than 2.0 mg/dL and urine albumin:creatinine ratio greater than 2000 mg/g", "result": "particularly beneficial"},
      {"measurement": "Rate of decline in renal function, median slope of reciprocal of serum creatinine concentration", "setting": "[4]", "result": "−0.056", "unit": "dl/mg/yr"},
      {"measurement": "Composite endpoint of cardiovascular morbidity and mortality, difference versus placebo plus conventional therapy", "setting": "[5]; losartan plus conventional therapy", "result": "no significant difference"},
      {"measurement": "Patients with myocardial infarction", "setting": "[5]; mean follow-up 3.4 years", "result": 50, "unit": "patients"},
      {"measurement": "Patients with hospitalization for heart failure", "setting": "[5]; time to first hospitalization, mean follow-up 3.4 years", "result": 89, "unit": "patients"},
      {"measurement": "Risk reduction, hospitalization for heart failure", "setting": "[5]; versus placebo, p=0.005", "result": 32, "unit": "%"},
      {"measurement": "Risk reduction, myocardial infarction", "setting": "[5]; versus placebo, p=0.08, did not reach statistical significance", "result": 28, "unit": "%"},
      {"measurement": "Risk reduction, fatal or non-fatal cardiovascular event", "setting": "[5]; versus placebo, p=0.26", "result": 9, "unit": "%"}
    ]}
  ]
}
